The text below walks through data of patent US20260042747A1, “KIT INHIBITORS, COMPOUNDS, PHARMACEUTICAL COMPOSITIONS, AND METHODS OF USE THEREOF” (Alivexis, Inc., priority 2022, published 2026).

Structures can show the parent of a compound that is named as a salt.

recombinant human KIT tyrosine kinase protein, sequence (P10721 546-976): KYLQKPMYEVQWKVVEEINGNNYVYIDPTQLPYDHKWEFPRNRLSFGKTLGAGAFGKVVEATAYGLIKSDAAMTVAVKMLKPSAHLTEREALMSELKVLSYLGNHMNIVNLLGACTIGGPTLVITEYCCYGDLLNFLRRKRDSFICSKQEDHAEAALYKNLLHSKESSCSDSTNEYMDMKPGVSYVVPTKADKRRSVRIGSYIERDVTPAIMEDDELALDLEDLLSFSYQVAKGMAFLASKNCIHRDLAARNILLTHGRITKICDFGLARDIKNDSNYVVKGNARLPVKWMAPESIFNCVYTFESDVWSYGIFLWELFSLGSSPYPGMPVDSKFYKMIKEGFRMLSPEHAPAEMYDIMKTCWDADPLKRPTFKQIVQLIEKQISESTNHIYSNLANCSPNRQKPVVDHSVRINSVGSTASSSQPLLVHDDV

The first assay concerns the target recombinant human KIT tyrosine kinase protein (Homo sapiens (Human), UniProt P10721). The assay is described as follows: KIT tyrosine kinase assay (ADP-Glo). It counts as biochemical. Conditions: Table 98. As to the method:
An in vitro assay utilizing the recombinant human KIT tyrosine kinase protein was developed to measure compound inhibition of KIT. KIT tyrosine kinase activity was measured by the ADP-Glo Kinase Assay system with poly […]) peptide substrate. Kinase Assay was performed in white 384-well plates and the luminescence was measured by Victor X5 Multilabel Counter (Perkin Elmer). Recombinant intracellular domain of human KIT protein was purchased from Carna Biosciences (Kobe, Japan). Poly […]) peptide was purchased from Sigma-Aldrich (St. Louis, Missouri, USA). ADP-Glo Kinase Assay reagent was purchased from Promega (Madison, Wisconsin, USA). Each test compound was dissolved in 100% DMSO to prepare 10 mM stock solutions. […] After the preincubation, 3 μL of substrate/ATP mixture was added and incubated for 1 hour at room temperature. The tyrosine phosphorylation by KIT kinase was quantified by ADP-Glo kinase assay kit following the manufacturer's protocol. Briefly, the phosphorylation reaction was terminated by adding 10 μL ADP-Glo reagent and incubated for 60 minutes at room temperature. 20 μL of Kinase Detection Reagent was added to each well and luminescence was measured by plate reader. […] Half maximal inhibitory concentration (IC50) was calculated by a Four […] Logistic Regression model using GraphPad Prism (GraphPad Software). The value without recombinant KIT protein and without test compound was used as a negative control (assay background).
On the technique in general: ADP-Glo turns the ADP formed in a reaction into a luminescent signal.
Usually IC50 stands for the concentration that gives 50% inhibition. Consider `Cn1c(=O)[nH]c2cc(C(=O)NCc3cnc(Oc4ccc(F)cc4)s3)ccc21` [Compound 5, N-((2-(4-Fluorophenoxy)thiazol-5-yl)methyl)-1-methyl-2-oxo-2,3-dihydro-1H-benz imidazole-5-carboxamide], for which the IC50 is 3.2 µM.

Consider `C[C@H](NC(=O)c1ccc2c(c1)[nH]c(=O)n2C)c1ccc(Oc2ccc(F)c(F)c2)nc1` [Compound 7, (S)—N-(1-(6-(3,4-Difluorophenoxy)pyridin-3-yl)ethyl)-1-methyl-2-oxo-2,3-dihydro-1H-benzimidazole-5-carboxamide], for which the IC50 worked out at 0.04 µM.

As to `O=C(NCc1ccc(Nc2ccc(F)cc2)nc1)c1ccc2[nH]c(=O)[nH]c2c1` [Compound 8, N-((6-((4-Fluorophenyl)amino)pyridin-3-yl)methyl)-2-oxo-2,3-dihydro-1H-benzimidazole-5-carboxamide trifluoroacetate], the IC50 is 0.19 µM.

For the molecule `C[C@H](NC(=O)c1ccc2c(c1)[nH]c(=O)n2C)c1ccc(N(C)c2ccc(F)cc2)nc1` [Compound 13, (S)—N-(1-(6-((4-Fluorophenyl)(methyl)amino)pyridin-3-yl)ethyl)-1-methyl-2-oxo-2,3-d ihydro-1H-benzimidazole-5-carboxamide], the IC50 amounted to 0.04 µM.

In the case of `Cn1c(=O)[nH]c2cc(C(=O)NCc3ccc(C(F)c4ccc(F)cc4)nc3)ccc21` (stereo not drawn) [Compound 16, N-((6-(Fluoro(4-fluorophenyl)methyl)pyridin-3-yl)methyl)-1-methyl-2-oxo-2,3-dihydro-1H-benzimidazole-5-carboxamide], the 50% inhibitory concentration (IC50) was found to be 0.061 µM.

Turning to `Cn1c(=O)[nH]c2cc(C(=O)NCc3cnc4c(c3)ncn4-c3c(F)cccc3F)ccc21` [Compound 21, N-((3-(2,6-Difluorophenyl)-3H-imidazo[4,5-b]pyridin-6-yl)methyl)-1-methyl-2-oxo-2,3-dihydro-1H-benzimidazole-5-carboxamide trifluoroacetate], the IC50 was 0.66 µM.

Regarding `Cn1c(=O)[nH]c2cc(C(=O)NCc3ccc(Oc4cccc(C#N)c4)nc3)ccc21` [Compound 22, N-((6-(3-Cyanophenoxy)pyridin-3-yl)methyl)-1-methyl-2-oxo-2,3-dihydro-1H-benzimid azole-5-carboxamide trifluoroacetate], the IC50 is 0.46 µM.

With `Cn1c(=O)[nH]c2cc(C(=O)NCc3ccc(N(c4ccc(F)cc4)C4CC4)nc3)ccc21` [Compound 23, N-((6-(Cyclopropyl(4-fluorophenyl)amino)pyridin-3-yl)methyl)-1-methyl-2-oxo-2,3-dihy dro-1H-benzimidazole-5-carboxamide], the IC50 turned out to be 0.078 µM.

On to `CN1CCC(N(C)c2ccc(CNC(=O)c3ccc4c(c3)[nH]c(=O)n4C)cn2)CC1` [Compound 24, 1-Methyl-N-((6-(methyl(1-methylpiperidin-4-yl)amino)pyridin-3-yl)methyl)-2-oxo-2,3-dihydro-1H-benzimidazole-5-carboxamide], for which the IC50 is 0.34 µM.

Consider `Cn1c(=O)[nH]c2cc(C(=O)NCc3cnc(NC4CCC(F)(F)CC4)s3)ccc21` [Compound 25, N-((2-((4,4-Difluorocyclohexyl)amino)thiazol-5-yl)methyl)-1-methyl-2-oxo-2,3-dihydro-1H-benzimidazole-5-carboxamide], for which the IC50 turned out to be 0.36 µM.

In the case of `CN1CCN(Cc2cccc(N(C)c3ccc(CNC(=O)c4ccc5c(c4)[nH]c(=O)n5C)cn3)c2)CC1` [Compound 26, 1-Methyl-N-((6-(methyl(3-((4-methylpiperazin-1-yl)methyl)phenyl)amino)pyridin-3-yl)methyl)-2-oxo-2,3-dihydro-1H-benzimidazole-5-carboxamide trifluoroacetate], the IC50 came out at 0.27 µM.

As to `CC(NC(=O)c1ccc2c(c1)[nH]c(=O)n2C)c1ccc(Oc2ccc(F)cc2F)nc1` (stereo not drawn) [Compound 27, N-(1-(6-(2,4-Difluorophenoxy)pyridin-3-yl)ethyl)-1-methyl-2-oxo-2,3-dihydro-1H-benzi midazole-5-carboxamide], the IC50 was found to be 0.074 µM.

On to `Cn1c(=O)[nH]c2cc(C(=O)NCc3ccc(Oc4ccc(F)c(F)c4)nc3)ccc21` [Example 37], for which the IC50 was 0.31 µM.

In the case of `Cn1c(=O)[nH]c2cc(C(=O)NCc3ccc(Oc4ccc(Cl)c(F)c4)nc3)ccc21` [Example 38], the IC50 was 0.06 µM.

Consider `Cn1c(=O)[nH]c2cc(C(=O)NCc3ccc(Oc4c(F)cccc4F)nc3)ccc21` [Example 40], for which the IC50 came to 0.039 µM.

`Cn1c(=O)[nH]c2cc(C(=O)NCc3ccc(Oc4cc(F)ccc4F)nc3)ccc21` [Example 41]: the IC50 was 0.036 µM.

With `Cn1c(=O)[nH]c2cc(C(=O)NCc3ccc(Oc4c(F)cc(F)cc4F)nc3)ccc21` [Example 42], the IC50 was determined as 0.027 µM.

For the molecule `Cc1cc(CNC(=O)c2ccc3c(c2)[nH]c(=O)n3C)cnc1Oc1ccccc1` [Example 43], the IC50 is 0.14 µM.

Turning to `Cn1c(=O)[nH]c2cc(C(=O)NCc3ccc(Oc4ccc5cn[nH]c5c4)nc3)ccc21` [Example 44], the 50% inhibitory concentration (IC50) came out at 0.12 µM.

As for `Cc1cc(CNC(=O)c2ccc3c(c2)[nH]c(=O)n3C)cnc1Oc1ccc(F)cc1` [Example 45], the IC50 was 0.13 µM.

Regarding `Cn1c(=O)[nH]c2cc(C(=O)NCc3ccc(Oc4ccc5[nH]ncc5c4)nc3)ccc21` [Example 46], the IC50 is 0.027 µM.

As to `Cn1c(=O)[nH]c2cc(C(=O)NCc3ccc(OC4CCC(F)(F)CC4)nc3)ccc21` [Example 47], the IC50 was 0.056 µM.

Turning to `Cn1c(=O)[nH]c2cc(C(=O)NCc3cnc(Oc4ccc(F)cc4)cn3)ccc21` [Example 49], the IC50 amounted to 0.95 µM.

Regarding `CC(NC(=O)c1ccc2c(c1)[nH]c(=O)n2C)c1ccc(Oc2ccc(F)c(F)c2)nc1` (stereo not drawn) [Example 51], the IC50 is 0.21 µM.

In the case of `CC(NC(=O)c1ccc2c(c1)[nH]c(=O)n2C)c1ccc(Oc2ccc(Cl)cc2F)nc1` (stereo not drawn) [Example 52], the IC50 worked out at 0.024 µM.

On to `CC(NC(=O)c1ccc2c(c1)[nH]c(=O)n2C)c1ccc(Oc2cccc(F)c2F)nc1` (stereo not drawn) [Example 53], for which the IC50 worked out at 0.079 µM.

Consider `C[C@H](NC(=O)c1ccc2c(c1)[nH]c(=O)n2C)c1ccc(Oc2ccc(Cl)cc2F)nc1` [Example 54], for which the IC50 is 0.033 µM.

With `C[C@H](NC(=O)c1ccc2c(c1)[nH]c(=O)n2C)c1ccc(Oc2cccc(F)c2F)nc1` [Example 55], the half-maximal inhibitory concentration (IC50) was found to be 0.037 µM.

Consider `CN(c1ccc(F)cc1)c1ccc(CNC(=O)c2ccc3[nH]c(=O)[nH]c3c2)cn1` [Example 56], for which the IC50 is 0.029 µM.

With `CN(c1ccc(CNC(=O)c2ccc3c(c2)[nH]c(=O)n3C)cn1)C1CCOCC1` [Example 60], the IC50 was found to be 0.14 µM.

For the molecule `Cc1ccc(N(C)c2ccc(CNC(=O)c3ccc4c(c3)[nH]c(=O)n4C)cn2)cn1` [Example 63], the IC50 was 0.037 µM.

With `Cc1ccc(CN(C)c2ccc(CNC(=O)c3ccc4c(c3)[nH]c(=O)n4C)cn2)nc1` [Example 79], the IC50 came out at 0.21 µM.

`CN(Cc1ccncn1)c1ccc(CNC(=O)c2ccc3c(c2)[nH]c(=O)n3C)cn1` [Example 81]: the IC50 came to 0.15 µM.

Take `CCN(CC)c1ccc(CNC(=O)c2ccc3c(c2)[nH]c(=O)n3C)cn1` [Example 85]: the IC50 was found to be 0.15 µM.

As to `Cn1c(=O)[nH]c2cc(C(=O)NCc3ccc(N(C)[C@H]4C[C@H](C(F)(F)F)C4)nc3)ccc21` [Example 87], the IC50 came out at 0.068 µM.

Staying with this assay, now noted: Table 99.
For the molecule `CC(NC(=O)c1ccc2c(c1)[nH]c(=O)n2C)c1ccc(N(C)C(C)C)nc1` (single isomer, unassigned) [130 Peak 2], the half-inhibitory concentration (IC50) is 1.03 µM.
